{"source": "patent US9023876B2", "about": "“Compounds and methods for regulating integrins” (Adhaere Pharmaceuticals, Inc., priority 2010, dated 2015)", "key": {"[1]": {"target": "T1, integrin CD11b/CD18 (Homo sapiens, UniProt P11215)", "T1 construct": "expressed in transfected cells; host or cells: K562", "test": "K562 cell adhesion assay, K562 CD11b/CD18 cells on immobilized fibrinogen (Fg)", "assay_type": "cell-based", "description": "Cell adhesion assays with immobilized ligands were performed as previously described. Assays with all different K562 cell lines (K562, K562 CD11b/CD18 and K562 E320A) were performed in an identical fashion. Briefly, 384-well Highbind microtiter plates were coated with a 30 μL solution of ligand in Phosphate Buffered Saline, pH 7.4 containing 1 mM each of Ca^2+ and Mg^2+ ions (PBS^++) overnight at 4° C. Ligand Fg was coated at a concentration of […] and iC3b at […]. Heterodimer specific mAb IB4 (ascites) was coated at a 1:100 dilution. Subsequently, the non-specific sites in the wells were blocked by incubation with 1% non-fat milk in Tris Buffered Saline (TBS), pH 7.4, at room temperature for 1 h, except for the neutrophil assay, where the wells were blocked with TBS containing 1% gelatin. Next, the wells were washed three times with TBS. K562 cells were suspended in the assay buffer (TBS containing 1 mM each of Ca^2+ and Mg^2+ ions (TBS^++)) and were transferred to the ligand-coated wells (30,000 cells/well). Stock solution of the leukadherin family of small molecule agonists was prepared by dissolving the compounds in DMSO at a concentration of 2-10 mM. Final concentration of DMSO in the assay was approximately 1%. […] Cells remaining adherent were fixed using formaldehyde and were quantitated using imaging microscopy, as previously described. […]"}, "[2]": {"target": "T1, integrin CD11b/CD18", "test": "Flow cytometry, binding of activation sensitive mAb24 to K562 CD11b/CD18 cells", "assay_type": "cell-based", "description": "Flow cytometric analysis of K562 cells for integrin CD11b/CD18 cell surface expression was performed using published protocols. Briefly, cells were suspended in the assay buffer (TBS containing 1 mM each of Ca^2+ and Mg^2+ ions (TBS^++) and 0.1% BSA). […] Subsequently, the cells were washed three times with the assay buffer and incubated with goat anti-mouse-APC (1 mg/ml, Invitrogen) for 20 min at 4° C. Cells were washed twice with the assay buffer and analyzed using FACSCaliber flow cytometer (BD Biosciences, CA), counting at least 10,000 events. Data was analyzed using the CellQuest software (BD Biosciences). Assays were performed in triplicate and the data shown is from one of at least three independent experiments.\nTo identify binding site of LA1-3, which are predicted to bind the ligand-binding αA (or α1) domain in CD11b/CD18 [33, 39, 76], we generated K562 cells stably expressing mutant integrin CD11bE320A/CD18 (K562 E320A). The highly conserved residue E320 in the linker following the activation-sensitive α7-helix in the CD11b A-domain (αA-domain) acts as an endogenous ligand of the CD18 vWFA-domain (βA- or I-domain). The E320A mutation abolishes agonist Mn^2+-ion mediated increase in ligand-binding by CD11b/CD18. However, stabilization of αA in a high-affinity conformation by additional activating mutations overcomes this deficit and induces ligand binding in the E320A mutant. […]"}, "[3]": {"test_system": "WT mouse macrophages and neutrophils", "test": "Secretion of pro-inflammatory cytokines by stimulated WT mouse macrophages and neutrophils", "assay_type": "cell-based", "settings": "cells stimulated with LPS, TNFalpha or ILbeta", "description": "We surmised that leukadherins may also suppress pro-inflammatory cytokine express-ion in leukocytes. […] In an experiment to test the effect of leukadherin treatment on secretion of pro-inflammatory cytokines by leukocytes, we stimulated WT mouse macrophages and neutrophils with LPS, TNFalpha or ILbeta in the absence or presence of two different concentrations of agonist LA1 and measured levels of pro-inflammatory cytokine in the cell supernatant. […] Leukadherins decrease secretion of pro-inflammatory factors, including microparticles, by beta2-integrin expressing cells. Additionally, they increase secretion of anti-inflammatory factors, such as IL-10."}, "[4]": {"test_system": "mice", "test": "Anti-glomerular basement membrane (anti-GBM) nephritis model", "assay_type": "in vivo, mouse", "description": "To determine whether CD11b/CD18 agonists have any therapeutic advantages over antagonists, we performed a head-to-head comparison between a well-characterized CD11b/CD18 antagonist (anti-CD11b antibody M1/70, [82]) and LA1 using an established mouse model of kidney disease, the anti-glomerular basement membrane (anti-GBM) nephritis. This model is characterized by neutrophil infiltration that mediates urinary protein loss, including albumin. In line with an important role for CD11b in this disease, CD11b^−/− mice and anti-CD11b mAb treated rats show decreased leukocyte infiltration and a protection from proteinuria. Here, induction of disease in mice led to peak influx of neutrophils and maximal proteinuria at day 3."}}, "data": [{"smiles": "O=C(O)c1ccc(-c2ccc(/C=C3\\SC(=S)N(Cc4ccccc4)C3=O)o2)cc1", "note": "[LA1]", "values": [{"measurement": "EC50", "setting": "[1]; K562 CD11b/CD18 cells, immobilized Fg, read-out: EC50 (effective concentration for 50% increase in adhesion), CD11b/CD18 dependent cell adhesion to Fg", "result": 4, "unit": "µM"}, {"measurement": "relative affinity for CD11b/CD18 compared with IMB-10", "setting": "[1]; cell-based adhesion assay", "result": "higher affinity"}, {"measurement": "binding of activation sensitive mAb24 to K562 CD11b/CD18 cells", "setting": "[2]", "result": "increase"}, {"measurement": "secretion of inflammatory factors (IL-6, TNFa, IL-1b, IFNg, MMP-9, soluble uPAR) in supernatant", "setting": "[3]", "result": "significantly decreased"}, {"measurement": "number of infiltrated neutrophils (neutrophil influx)", "setting": "[4]", "result": "significant and maximal decrease"}, {"measurement": "proteinuria", "setting": "[4]", "result": "significant and maximal decrease"}]}]}
